Laboratory results as given in patent publication US20020010182A1, “Piperazine derivatives as tachykinin antagonists” (FUJISAWA PHARMACEUTICAL CO., LTD., priority 1995, published 2002).

Tests used:
[1] = tested on: emesis in the ferret; assay: Emesis in the ferret (copper sulfate induced); assay type: in vivo; conditions: i.p. dose of 3.2 and/or 10 mg/kg, 30 min before intra-gastric copper sulfate (40 mg/kg/ml); retching and vomiting observed for 30 min
Description: Individually housed adult male ferrets (Marshall Farms, 1.4 to 2.2 kg) were given an i.p. injection of a solution containing a test compound 30 Min later the emetic responses (retching and vomiting) were induced by administration of intra-gastric copper sulfate (40 mg/kg/ml) and observed for the next 30 min. The timing and number of retches and vomits observed were recorded for each animal. An individual animal was tested with at least 10 days between experiments.

[2] = target: T1, h-NK1 receptors (Homo sapiens, UniProt P25103); assay: Evaluation of NK1 antagonist transport efficiency to the central nervous system using a h-NK1 receptor binding assay; conditions: 5 min, brain extract of male SD rats 5 min after i.v. injection of test compound, CHO cell membranes expressing h-NK1, read-out: inhibition rate of 125I-BH-Substance P binding to h-NK1 receptors
T1 construct: expressed in transfected cells; host or cells: CHO cells (permanent expression), crude cell membranes
Summary of the method: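 Male SD rats dosed i.v. at 1 mg/kg; brain removed 5 min later after saline perfusion, homogenized, extracted with ethyl acetate. Extract competed against 0.1 nM 125I-BH-Substance P on CHO h-NK1 membranes, 22 °C, 90 min, pH 7.4 Mn2+ buffer; specific binding defined with 3 μM unlabeled Substance P.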

T1 sequence (P25103 whole entry): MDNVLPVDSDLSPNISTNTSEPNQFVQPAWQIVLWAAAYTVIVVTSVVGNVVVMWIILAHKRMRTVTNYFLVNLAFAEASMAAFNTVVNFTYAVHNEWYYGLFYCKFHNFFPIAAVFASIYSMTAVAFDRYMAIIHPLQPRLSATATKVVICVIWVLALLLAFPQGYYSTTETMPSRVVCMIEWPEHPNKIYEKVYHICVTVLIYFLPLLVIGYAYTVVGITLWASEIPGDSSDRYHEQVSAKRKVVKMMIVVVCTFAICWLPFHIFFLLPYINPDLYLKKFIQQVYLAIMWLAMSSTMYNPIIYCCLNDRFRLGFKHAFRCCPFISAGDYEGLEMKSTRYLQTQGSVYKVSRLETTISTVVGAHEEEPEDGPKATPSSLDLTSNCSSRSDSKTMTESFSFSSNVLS

| melting point | inhibition at 1 mg/kg [2] [%] | SMILES | inhibition rate of emesis in the ferret [1] [%] |
| --- | --- | --- | --- |
| 170 to 182 °C | > 80 | Cl.Cl.O=C(c1cc(C(F)(F)F)cc(C(F)(F)F)c1)N1CCN(CCN2CCSCC2)C[C@H]1Cc1c[nH]c2ccccc12 [Example 37-(6), (2R)-4-(2-Thiomorpholinoethyl)-1-[3,5-bis (trifluoromethyl)benzoyl]-2-(1H-indol-3-ylmethyl) piperazine dihydrochloride] | 100 |
| 272 °C (dec.) | > 80 | Cc1ccc(C[C@@H]2CN(CCCN3CCSCC3)CCN2C(=O)c2cc(C(F)(F)F)cc(C(F)(F)F)c2)cc1C.Cl.Cl [24-(2), (2R)-1-[3,5-Bis(trifluoromethyl)benzoyl]-2-(3,4-dimethylbenzyl)-4-(3-thiomorpholinopropyl) piperazine dihydrochloride] | 100 |

| SMILES | melting point | inhibition at 1 mg/kg [2] [%] | inhibition rate of emesis in the ferret [1] [%] |
| --- | --- | --- | --- |
| Cl.Cl.O=C(c1cc(C(F)(F)F)cc(C(F)(F)F)c1)N1CCN(CCCN2CC3CCC(CC3)C2)C[C@H]1Cc1c[nH]c2ccccc12 [Example 22, (2R)-4-[3-(3-azabicyclo(3.2.2]non-3-yl)propyl]-1-[3,5-bis(trifluoromethyl)benzoyl]-2-(1H-indol-3-ylmethyl) piperazine dihydrochloride] | 194 to 202 °C | > 80 | 100 |
